The values that follow come from patent EP1038864A1, “NOVEL METALLOPROTEINASE INHIBITORS” (FUJI YAKUHIN KOGYO KABUSHIKI KAISHA, priority 1997, dated 1999).

One test deals with human fibroblast stromelysin (Homo sapiens, UniProt P08254). As to the kind of experiment: Assay for inhibition of stromelysin (fluorescein-labeled casein substrate). In kind it is biochemical.
Sequence of human fibroblast stromelysin (P08254 100-477): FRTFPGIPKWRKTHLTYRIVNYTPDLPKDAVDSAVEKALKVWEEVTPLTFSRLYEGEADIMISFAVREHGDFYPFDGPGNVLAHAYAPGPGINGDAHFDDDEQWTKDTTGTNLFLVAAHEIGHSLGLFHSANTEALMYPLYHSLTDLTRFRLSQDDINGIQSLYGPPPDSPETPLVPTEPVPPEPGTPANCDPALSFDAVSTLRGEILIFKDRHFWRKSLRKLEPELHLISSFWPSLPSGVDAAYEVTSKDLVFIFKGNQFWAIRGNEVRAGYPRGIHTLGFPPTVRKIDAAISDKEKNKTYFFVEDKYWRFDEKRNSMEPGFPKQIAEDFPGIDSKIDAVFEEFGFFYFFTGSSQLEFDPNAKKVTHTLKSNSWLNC
Conditions: not given
On the procedure:
(§1) Described below are assays for biological activities of the compounds according to the present invention, formulations, dosage forms and dosage levels thereof, and miscellaneous matters. The efficacy of the compounds represented by the formula (I) according to the present invention as inhibitors of human fibroblast collagenase (metalloproteinase involved in the breakdown of tissues) is determined by a procedure based on the method of Y. Murawaki et al., Journal of Hepatology, 18, p328-334 (1993). The efficacy of the compounds (I) of this invention as inhibitors of human fibroblast stromelysin is determined by a procedure based on the method of S. S. Twining, Anal. Biochem., 143, p30 (1984). The assay results obtained are shown hereinbelow, together with biological examples which illustrate embodiments of the assay protocols.
The efficacy of compounds of the present invention to act as inhibitors of human fibroblast stromelysin was determined by the procedure of Twining (Anal. Biochem., 143, p.30, 1984), compared with a reference compound.
Prostromelysin was activated by incubation with 20 µg/ml human plasmin at 37°C for 2 hours, and the reaction was stopped by addition of 2.8 mg/ml aqueous diisopropyl fluorophosphate. The inhibition was assayed using, as a substrate, fluorescein-labeled casein. To a solution of the substrate (1 mg/ml) in a 50 mM Tris-HCl buffer, pH 7.8, containing 10mM aqueous calcium chloride was added the activated stromelysin. The resultant solution was incubated at 37°C for 2 hours. The digestion of the substrate with the enzyme was stopped by addition of 5% trichloroacetic acid. Undigested substrates were precipitated by centrifugation at 3000 x g for 20 minutes. The supernatant was collected, followd by additon of a 0.5M Tris-HCl buffer, pH 8.5. The fluorescence was read using an excitation wavelength of 495 nm and an emission wavelength of 520 nm. The inhibitory potency of the compounds was calculated. […] The resulting assay data for representative examples are shown in Table 2, compared with the reference compound.
As to `CNC(=O)[C@H](CCCNC(=N)N)NC(=O)[C@H](CC(C)C)C(Cc1ccc(CNS(C)(=O)=O)cc1)C(=O)NO` (single isomer, unassigned) [Compound No. 52, N^a-[4-(Hydroxyamino)-2(R)-isobutyl-3(R or S)-(p-methanesulfonamidomethylbenzyl)succinyl]-L-arginine N-methylamide· 1 acetate], the IC50 was 0.023 µM.

For `CNC(=O)[C@H](CCCNC(=N)N)NC(=O)[C@H](CC(C)C)C(CCOc1ccccc1)C(=O)NO` (single isomer, unassigned) [Compound No. 54, N^a-[4-(Hydroxyamino)-2(R)-isobutyl-3(R or S)-(2-phenoxyethyl)succinyl]-L-arginine N-methylamide· 1 acetate], the IC50 was determined as 0.01 µM. The same measure, in the same setting: then `CNC(=O)[C@H](CCCCN)NC(=O)[C@H](CC(C)C)C(CCCCCCCCO)C(=O)NO` (single isomer, unassigned) [Compound No. 68, N^a-[4-(Hydroxyamino)-2(R)-isobutyl-3(R or S)-(8-hydroxyoctyl)-succinyl]-L-lysine N-methylamide· 1 acetate], with 0.014 µM. On the same count and under the same terms, in the case of `CNC(=O)[C@H](CCCCN)NC(=O)[C@H](CC(C)C)C(CCOCC(C)C)C(=O)NO` (single isomer, unassigned) [Compound No. 70, N^a-[4-(Hydroxyamino)-2(R)-isobutyl-3(R or S)-(2-isobutyloxyethyl)succinyl]-L-lysine N-methylamide· 1 acetate] it was 0.028 µM. On the same count and under the same terms, then `CNC(=O)C(CCNC(=N)N)NC(=O)C(CC(C)C)C(CCCc1ccccc1)C(=O)NO` [Compound No. 26, N^4-[3-Guanidino-1(S)-methylcarbamoylpropyl]-N^1-hydroxy-3(R)-isobutyl-2-(RS)-(3-phenylpropyl)succinamide · 1 acetate], with 0.04 µM.

Still in this test, the particulars now being: plasmin-activated human fibroblast prostromelysin, 37°C, 2 hours, pH 7.8; read-out: Inhibition of MMP-3.
`CC(C)CC(C(=O)NC(CCCN)C(=O)NC1CC1)C(C)C(=O)NO` (single isomer, unassigned) [Compound No. 37, N^a-[4-(Hydroxyamino)-2(R)-isobutyl-3(R or S)-methylsuccinyl]-L-ornithine N-cyclopropylamide · 1 acetate]: the IC50 was determined as 0.05 µM.

With `CC(C)CC(C(=O)NO)C(CC(C)C)C(=O)NC(Cc1ccc(CN)cc1)C(=O)NCCO` [Compound No. 35, N^a-[4-(Hydroxyamino)-2(R),3(RS)-diisobutylsuccinyl]-4'-aminomethyl-L-phenylalanine N-(2-hydroxyethyl)amide · 1 acetate], the IC50 was 0.019 µM.

In another test the target is TNF-α Convertase (Homo sapiens, UniProt P78536). As to the kind of experiment: Assay for inhibition of TNF-α production in LPS-stimulated, PMA-differentiated U937 cells.
Sequence of TNF-α Convertase (P78536 215-824): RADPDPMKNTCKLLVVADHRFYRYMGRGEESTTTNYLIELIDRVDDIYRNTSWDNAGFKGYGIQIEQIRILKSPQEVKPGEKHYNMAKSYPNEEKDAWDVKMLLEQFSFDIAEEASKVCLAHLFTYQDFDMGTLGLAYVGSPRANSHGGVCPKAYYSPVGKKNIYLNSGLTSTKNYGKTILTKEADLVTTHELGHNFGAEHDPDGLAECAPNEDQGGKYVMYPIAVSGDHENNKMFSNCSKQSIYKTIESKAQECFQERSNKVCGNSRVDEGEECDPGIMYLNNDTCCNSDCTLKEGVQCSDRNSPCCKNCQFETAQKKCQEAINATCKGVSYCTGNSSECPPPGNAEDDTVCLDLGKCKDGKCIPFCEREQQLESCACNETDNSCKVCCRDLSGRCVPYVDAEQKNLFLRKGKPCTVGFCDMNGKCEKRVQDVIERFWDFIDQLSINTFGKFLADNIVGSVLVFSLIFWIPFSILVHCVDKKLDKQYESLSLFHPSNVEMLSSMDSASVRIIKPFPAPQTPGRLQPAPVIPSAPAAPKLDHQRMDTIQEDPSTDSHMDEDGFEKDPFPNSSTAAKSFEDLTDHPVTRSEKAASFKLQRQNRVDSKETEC
Conditions: not given
`CNC(=O)C(Cc1ccc(CN)cc1)NC(=O)C(CC(C)C)C(CCCc1ccccc1)C(=O)NO` (single isomer, unassigned) [Compound No. 47, N^a-[4-(Hydroxyamino)-2(R)-isobutyl-3(R or S)-(3-phenylpropyl)succinyl]-4'-aminomethyl-L-phenylalanine N-methylamide · 1 acetate] gave an IC50 of 0.21 µM. For the molecule `CNC(=O)[C@H](CCCNC(=N)N)NC(=O)[C@H](CC(C)C)C(CCOc1ccccc1)C(=O)NO` (single isomer, unassigned) [Compound No. 54, N^a-[4-(Hydroxyamino)-2(R)-isobutyl-3(R or S)-(2-phenoxyethyl)succinyl]-L-arginine N-methylamide· 1 acetate], the IC50 came out at 0.34 µM. Same read-out and setting: then `CNC(=O)C(CCCNC(=N)N)NC(=O)C(CC(C)C)C(CCCC1CCCCC1)C(=O)NO` (single isomer, unassigned) [Compound No. 55, N^a-[4-(Hydroxyamino)-2(R)-isobutyl-3(R or S)-(3-cyclohexylpropyl)succinyl]-L-arginine N-methylamide · 1 acetate], with 0.279 µM. Same read-out and setting: then `CNC(=O)[C@H](C)NC(=O)[C@H](CC(C)C)C(CCCCCNC(C)=N)C(=O)NO` (single isomer, unassigned) [Compound No. 62, N^a-[4-(Hydroxyamino)-2(R)-isobutyl-3(R or S)-[5-(acetimidoylimino)pentyl]succinyl]-L-alanine N-methylamide], with 2.89 µM; and `CNC(=O)[C@H](CCCCN)NC(=O)[C@H](CC(C)C)C(CCCc1ccc(C(=O)OC)cc1)C(=O)NO` (single isomer, unassigned) [Compound No. 65, N^a-[4-(Hydroxyamino)-2(R)-isobutyl-3(R or S)-[3-(p-methoxycarbonylphenyl)propyl]succinyl]-L-lysine N-methylamide· 1 acetate], with 0.421 µM; and `CNC(=O)[C@H](CCCCN)NC(=O)[C@H](CC(C)C)C(CCCc1ccc(C(=O)O)cc1)C(=O)NO` (single isomer, unassigned) [Compound No. 67, N^a-[4-(Hydroxyamino)-2(R)-isobutyl-3(R or S)-[3-(p-carboxyphenyl)propyl]succinyl]-L-lysine N-methylamide], with 0.527 µM. On the same count and under the same terms, then `CC(C)CC(C(=O)NO)C(CC(C)C)C(=O)NC(Cc1ccc(CN)cc1)C(=O)NCCN(C)C` (single isomer, unassigned) [Compound No. 89, N^a-[4-(Hydroxyamino)-2(R),3(R or S)-diisobutylsuccinyl]-4'-aminomethyl-L-phenylalanine N-(2-N',N'-dimethylaminoethyl)amide· 2 acetate], with 1.9 µM; and `CNC(=O)[C@H](C)NC(=O)[C@H](CC(C)C)C(CCCc1ccc(CN)cc1)C(=O)NO` (stereo partly drawn) [Compound No. 58, N^a-[4-(Hydroxyamino)-2(R)-isobutyl-3(RS)-[3-(p-aminomethylphenyl)propyl]succinyl]-L-alanine N-methylamide · 1 acetate], with 0.942 µM.

A further test deals with T1, human fibroblast collagenase (Homo sapiens, UniProt P03956).
T1 sequence (P03956 100-469): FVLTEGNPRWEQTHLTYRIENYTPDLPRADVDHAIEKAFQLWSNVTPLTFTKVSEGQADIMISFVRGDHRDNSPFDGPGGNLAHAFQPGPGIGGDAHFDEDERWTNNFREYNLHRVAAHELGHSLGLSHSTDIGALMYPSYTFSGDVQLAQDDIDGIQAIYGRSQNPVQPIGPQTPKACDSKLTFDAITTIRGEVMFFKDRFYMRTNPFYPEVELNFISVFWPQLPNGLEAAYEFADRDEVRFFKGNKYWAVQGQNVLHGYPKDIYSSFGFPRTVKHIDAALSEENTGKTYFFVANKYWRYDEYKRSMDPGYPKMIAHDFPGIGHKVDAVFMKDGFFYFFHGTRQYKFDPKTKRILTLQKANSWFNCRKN
As to the kind of experiment: Assay for inhibition of collagenase (fluorescein-labeled bovine type I collagen substrate). It is filed as biochemical. The note with it: activated human fibroblast procollagenase, 35°C, 2 hours, pH 7.5; read-out: Inhibition of MMP-1. The method, then:
as §1
The efficacy of compounds of the present invention to act as inhibitors of human fibroblast collagenase was determined by the procedure of Y. Murawaki et al. (Journal of Hepatology, 18, p.328-334, 1993), compared with a reference compound.
Procollagenase was activated by incubation with 2 mM 4-aminophenylmercuric acetate (APMA) at 35°C for 2 hours. The inhibition was assayed using, as a substrate, fluorescein-labeled bovine type I collagen. To a solution of the substrate (0.5 mg/ml) in a 50 mM Tris-HCl buffer, pH 7.5, containing 0.4M aqueous sodium chloride and 10 mM aqueous […] was added the activated collagenase. The resultant solution was incubated at 35°C for 2 hours. The digestion of the substrate with the enzyme was stopped by addition of 80 mM o-phenanthroline, followed by addition of a porcine elastase solution formed by dissolving 25 µg/ml porcine elastase in the aforementioned Tris-HCl buffer. The mixture was incubated at 37°C for 10 minutes. To the resulting solution was added 70% ethanol, and a 170 mM Tris-HCl buffer, pH 9.5, containing 0.67M aqueous sodium chloride. Undigested substrates were precipitated by centrifugation at 3000 x g for 20 minutes. The supernatant was collected and the fluorescence was read using an excitation wavelength of 495 nm and an emission wavelength of 520 nm. The inhibitory potency of the compounds was calculated. […] The resulting assay data for representative examples are shown in Table 1, compared with the reference compound. […]
For `CNC(=O)C(CCNC(=N)N)NC(=O)C(CC(C)C)C(C)C(=O)NO` (single isomer, unassigned) [Compound No. 28, N^4-[3-Guanidino-1(S)-methylcarbamoylpropyl]-N^1-hydroxy-3(R)-isobutyl-2(R or S)-methylsuccinamide · 1 acetate], the IC50 is 0.01 µM. Turning to `CNC(=O)[C@H](CCCCN)NC(=O)[C@H](CC(C)C)C(CCCN1CCOCC1)C(=O)NO` (single isomer, unassigned) [Compound No. 73, N^a-[4-(Hydroxyamino)-2(R)-isobutyl-3(R or S)-[3-(morpholin-4-yl)propyl]succinyl]-L-lysine N-methylamide· 1 acetate], the IC50 turned out to be 0.011 µM. Still for that read-out and setting: then `CNC(=O)[C@H](CCN)NC(=O)[C@H](CC(C)C)C(CCCc1ccc(CN)cc1)C(=O)NO` (single isomer, unassigned) [Compound No. 78, N^4-[3-Amino-1(S)-methylcarbamoylpropyl)-N^1-hydroxy-2(R or S)-[3-(p-aminomethylphenyl)propyl]-3(R)-isobutylsuccinamide· 2 acetate], with 0.018 µM; and `CNC(=O)[C@@H](NC(=O)[C@H](CC(C)C)C(CCCc1ccc(CN)cc1)C(=O)NO)C(C)(C)C` (single isomer, unassigned) [Compound No. 79, N^a-[4-(Hydroxyamino)-2(R)-isobutyl-3(R or S)-[3-(p-aminomethylphenyl)propyl]succinyl]-L-tert-leucine N-methylamide· 1 acetate], with 0.005 µM. Regarding `CNC(=O)[C@H](CCCN)NC(=O)[C@H](CC(C)C)C(CCCc1ccc(CN)cc1)C(=O)NO` (single isomer, unassigned) [Compound No. 80, N^a-[4-(Hydroxyamino)-2(R)-isobutyl-3(R or S)-[3-(p-aminomethylphenyl)propyl]succinyl]-L-ornithine N-methylamide· 1 acetate], the IC50 came to 0.009 µM.
